For one assay, the system named is spleen of BALB/c mice. Description: In vivo delivery of mRNA with CPPs - reporter levels in the spleen. The method, boiled down:
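CPP/mRNA complexes were formed at the indicated charge ratios in water for 30 min at room temperature, using 10 or 50 μg mRNA, then brought to 5% glucose. Complexes were injected intravenously via the tail vein into BALB/c mice. Spleens were harvested 16 h after the single injection, and luciferase (RLU) was measured in whole-tissue homogenate.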

A further assay concerns CHO-K1 cells. Description: Comparison of reporter levels in cells post-transfection of pDNA or mRNA delivered by CPPs. It counts as cell-based. Conditions: in words; mRNA cargo; FIG. 2. The procedure: FIG. 2: Comparison of reporter levels in cells post-transfection of pDNA or mRNA delivered by CPPs (P14, NF55 and NF71; relative light units normalised to total protein in the cell lysate (RLU/mg)). Naked mRNA and untreated cells (UT) were used as controls.
Adherent CHO-K1 cells were grown in Dulbecco's Modified Eagle's Medium (DMEM), which were supplemented with 0.1 mM non-essential amino acids, 1.0 mM sodium pyruvate, 100 U/ml penicillin, and […]. For complete media, 10% (final) fetal bovine serum (FBS) was added. Cells were maintained in a humidified incubator at 37 °C, 5% CO2. Cell viability and confluence was assessed daily and the cell density was reduced regularly. For cell counting, we used the CytoSMART cell counter accompanied by 0.4% trypan blue staining prior measurement. The multi-well plates with cell cultures used for experiments were incubated in a humidified incubator at 37 °C, 5% CO2.
For in vitro experiments 0.1 μg of nucleic acid (plasmid DNA (pDNA) or mRNA) was used per 96-well plate well. For CPP/NA complex formation, the diluted NA was mixed with CPP in water. Complexes were formed based on the theoretical charge ratio (CR) of positive charges from the peptide in excess to the negative charges from nucleic acid backbone, at charge ratio 3:1 with peptide in excess. […]
For reporter luminescence (expressed from firefly luciferase encoding mRNA or plasmid pDNA) assessment in adherent cell culture, 10,000 cells per 96-well plate well were seeded in 100 μl of media one day prior to transfection. […]
24 hours post-transfection, the media was aspirated, cells were washed with 1×PBS, and 30 μl of lysis buffer (0.1% Triton X100 in 1×PBS) was added. […] From the lysate, 20 μl was transferred to a black frame white well 96-well plate for luminescence measurement after addition of substrate luciferin (PerkinElmer) in buffer. The luminescence signal was detected with GloMax® 96 microplate luminometer equipped with GloMax® 1.9.2 software (Promega). […]

For assay [1], the system named is liver, spleen, lung, kidney, heart and thymus of Balb/c mice. Description: Biodistribution of reporter levels post-transfection of mRNA or pDNA with CPPs in vivo (tissue homogenate). The procedure:
FIG. 3: Biodistribution of reporter levels post-transfection of mRNA or pDNA with NFs or PFs CPPs in vivo. Reporter gene product levels were evaluated from the whole tissue homogenates collected post mortem. Results are shown as the fold change to mRNA or pDNA treated mice.
The transfection complexes (CPP/mRNA) were formed using 10 μg of mRNA mixed with each peptide at indicated charge ratios (CRs) in MQ water in a final volume of 100 μl. CRs were calculated theoretically and account for both the positive charges of the peptide and negative charges of the nucleic acid. The transfection complexes (CPP/mRNA and CPP/pDNA) were formed using 50 μg of mRNA mixed with each peptide at indicated charge ratios (CRs) in MQ water in a final volume of 168 μl. The complexes were incubated for 30 minutes at room temperature and then mixed with equal volume of 10% glucose (resulting in a final solution of 5% glucose in a total volume of 200 μl for 10 μg dose groups and 336 μl for 50 μg dose groups) and immediately injected intravenously via the tail vein.
The reporter gene (luciferase) expression levels were evaluated from the tissue homogenate post mortem 16-24 h after single injection.
In order to determine to which organs in vivo mRNAs may be delivered to with NickFect or PepFect CPPs, mRNA complexes with NF55, NF71 and PF14 were formed and injected through the tail vein of Balb/c mice (FIG. 3A). The organs were harvested 24 hours after the single injection and reporter signal was measured from whole tissue homogenates. The biodistribution of reporter levels was measured in liver, spleen, lung, kidney, heart and thymus.
In order to compare the biodistribution profiles between harvested organs when using either mRNA or pDNA as cargo, NF424 was used to transfect these 2 types of nucleic acids in vivo (FIG. 3B and Table 4).

The mark [2] stands for this setting: mRNA delivery, i.v. tail vein, 24 h after single injection, FIG. 3: fold change to mRNA or pDNA treated mice.

Each structure is given as a SMILES string.

With `CCCCCCCCCCCCCCCCCC(=O)N[C@@H](C)C(=O)NCC(=O)N[C@@H](Cc1ccc(O)cc1)C(=O)N[C@@H](CC(C)C)C(=O)N[C@@H](CC(C)C)C(=O)NCC(=O)NCCC[C@H](N)C(=O)N[C@H](C(=O)N[C@@H](CC(N)=O)C(=O)N[C@@H](CC(C)C)C(=O)N[C@@H](CCCCN)C(=O)N[C@@H](C)C(=O)N[C@@H](CC(C)C)C(=O)N[C@@H](C)C(=O)N[C@@H](C)C(=O)N[C@@H](CC(C)C)C(=O)N[C@@H](C)C(=O)N[C@@H](CCCCN)C(=O)N[C@@H](C)C(=O)N[C@H](C(=O)N[C@@H](CC(C)C)C(N)=O)[C@@H](C)CC)[C@@H](C)CC` [NF55], the “Efficacy of mRNA delivery into the spleen in vivo” value with spleen of BALB/c mice (in words, FIG. 5 / Table 5) is on record as “delivered mRNA into the spleen in vivo with high efficacy”. Also, the “Reporter levels in the spleen (RLU)” value with spleen of BALB/c mice (mRNA, tail vein injection, spleens harvested 16 hours after single injection, whole tissue homogenate) is on record as 124 363 RLU. The “Efficiency of mRNA transfection (parallel pDNA/mRNA comparison)” value in the assay with CHO-K1 cells is given as “very efficient for mRNA transfection”. In assay [1] (in words, mRNA cargo), the “Organ distribution of mRNA delivery” value was “much higher than in any other organ”. Besides, in assay [1] (setting [2]), the “Reporter level, Liver” value amounted to 284; the “Reporter level, Lung” value is on record as 23 465; the “Reporter level, Spleen” value is 79 879. In assay [1] (mRNA, 24 h after single i.v. injection), the “Delivery of mRNA to the spleen relative to delivery to the lungs” value is 3.5 times.

For the origin of these results see patent US20260355330A1, “CELL PENETRATING PEPTIDES AND USES THEREOF” (VECTIOPEP OÜ, priority 2022, published 2026).
